Results as given in ChEMBL document CHEMBL3046559, “Sterile oat (Avena sterilis L.) cross-resistance profile to ACCase-inhibiting herbicides in Greece” (2012).

What was measured:
Assay type in all cases: functional
Avena sterilis [1] = assay: Herbicidal activity against Avena sterilis accession P02 assessed as weed survival at 1 times field recommended herbicide dose
Avena sterilis [2] = assay: Herbicidal activity against Avena sterilis accession P21S assessed as induction of weed mortality
Avena sterilis [3] = assay: Herbicidal activity against Avena sterilis accession P14 assessed as weed survival at 4 times field recommended herbicide dose
Avena sterilis [4] = assay: Herbicidal activity against Avena sterilis accession P07 assessed as weed survival at 32 times field recommended herbicide dose
Avena sterilis [5] = assay: Herbicidal activity against Avena sterilis accession P01 assessed as weed survival at 8 times field recommended herbicide dose
Avena sterilis [6] = assay: Herbicidal activity against Avena sterilis accession P08 assessed as weed survival at 16 times field recommended herbicide dose
Avena sterilis [7] = assay: Herbicidal activity against Avena sterilis accession P09 assessed as weed survival at 1 times field recommended herbicide dose
Avena sterilis [8] = assay: Herbicidal activity against Avena sterilis accession P17 assessed as weed survival at 8 times field recommended herbicide dose
Avena sterilis [9] = assay: Herbicidal activity against Avena sterilis accession P04 assessed as weed survival at 4 times field recommended herbicide dose
Avena sterilis [10] = assay: Herbicidal activity against Avena sterilis accession P05 assessed as weed survival at 32 times field recommended herbicide dose
Avena sterilis [11] = assay: Herbicidal activity against Avena sterilis accession P08 assessed as weed survival at 32 times field recommended herbicide dose
Avena sterilis [12] = assay: Herbicidal activity against Avena sterilis accession P16 assessed as weed survival at 4 times field recommended herbicide dose
Avena sterilis [13] = assay: Herbicidal activity against Avena sterilis accession P05 assessed as induction of weed mortality
Avena sterilis [14] = assay: Herbicidal activity against Avena sterilis accession P17 assessed as induction of weed mortality
Avena sterilis [15] = assay: Herbicidal activity against Avena sterilis accession P16 assessed as weed survival at 1 times field recommended herbicide dose
Avena sterilis [16] = assay: Herbicidal activity against Avena sterilis accession P21S assessed as weed survival at 1/16 times field recommended herbicide dose
Avena sterilis [17] = assay: Herbicidal activity against Avena sterilis accession P09 assessed as weed survival at 8 times field recommended herbicide dose
Avena sterilis [18] = assay: Herbicidal activity against Avena sterilis accession P06S assessed as weed survival at 1/8 times field recommended herbicide dose
Avena sterilis [19] = assay: Herbicidal activity against Avena sterilis accession P20 assessed as weed survival at 16 times field recommended herbicide dose
Avena sterilis [20] = assay: Herbicidal activity against Avena sterilis accession P06S assessed as weed survival at 1 times field recommended herbicide dose
Avena sterilis [21] = assay: Herbicidal activity against Avena sterilis accession P20 assessed as induction of weed mortality
Avena sterilis [22] = assay: Herbicidal activity against Avena sterilis accession P14 assessed as weed survival at 1 times field recommended herbicide dose
Avena sterilis [23] = assay: Herbicidal activity against Avena sterilis accession P16 assessed as weed survival at 32 times field recommended herbicide dose
Avena sterilis [24] = assay: Herbicidal activity against Avena sterilis accession P10S assessed as weed survival at 1/16 times field recommended herbicide dose
Avena sterilis [25] = assay: Herbicidal activity against Avena sterilis accession P13S assessed as weed survival at 1/8 times field recommended herbicide dose
Avena sterilis [26] = assay: Herbicidal activity against Avena sterilis accession P08 assessed as induction of weed mortality
Avena sterilis [27] = assay: Herbicidal activity against Avena sterilis accession P05 assessed as weed survival at 4 times field recommended herbicide dose
Avena sterilis [28] = assay: Herbicidal activity against Avena sterilis accession P20 assessed as weed survival at 1 times field recommended herbicide dose
Avena sterilis [29] = assay: Herbicidal activity against Avena sterilis accession P11 assessed as induction of weed mortality
Avena sterilis [30] = assay: Herbicidal activity against Avena sterilis accession P07 assessed as induction of weed mortality
Avena sterilis [31] = assay: Herbicidal activity against Avena sterilis accession P15 assessed as weed survival at 1 times field recommended herbicide dose
Avena sterilis [32] = assay: Herbicidal activity against Avena sterilis accession P10S assessed as induction of weed mortality
Avena sterilis [33] = assay: Herbicidal activity against Avena sterilis accession P03 assessed as induction of weed mortality
Avena sterilis [34] = assay: Herbicidal activity against Avena sterilis accession P02 assessed as weed survival at 8 times field recommended herbicide dose
Avena sterilis [35] = assay: Herbicidal activity against Avena sterilis accession P02 assessed as induction of weed mortality
Avena sterilis [36] = assay: Herbicidal activity against Avena sterilis accession P14 assessed as weed survival at 16 times field recommended herbicide dose
Avena sterilis [37] = assay: Herbicidal activity against Avena sterilis accession P21S assessed as weed survival at 1/8 times field recommended herbicide dose
Avena sterilis [38] = assay: Herbicidal activity against Avena sterilis accession P13S assessed as weed survival at 1 times field recommended herbicide dose
Avena sterilis [39] = assay: Herbicidal activity against Avena sterilis accession P21S assessed as weed survival at 1/32 times field recommended herbicide dose
Avena sterilis [40] = assay: Herbicidal activity against Avena sterilis accession P02 assessed as weed survival at 16 times field recommended herbicide dose
Avena sterilis [41] = assay: Herbicidal activity against Avena sterilis accession P14 assessed as weed survival at 8 times field recommended herbicide dose
Avena sterilis [42] = assay: Herbicidal activity against Avena sterilis accession P21S assessed as weed survival at 1/4 times field recommended herbicide dose
Avena sterilis [43] = assay: Herbicidal activity against Avena sterilis accession P11 assessed as weed survival at 16 times field recommended herbicide dose
Avena sterilis [44] = assay: Herbicidal activity against Avena sterilis accession P14 assessed as induction of weed mortality
Avena sterilis [45] = assay: Herbicidal activity against Avena sterilis accession P15 assessed as weed survival at 4 times field recommended herbicide dose
Avena sterilis [46] = assay: Herbicidal activity against Avena sterilis accession P09 assessed as weed survival at 16 times field recommended herbicide dose
Avena sterilis [47] = assay: Herbicidal activity against Avena sterilis accession P19S assessed as induction of weed mortality
Avena sterilis [48] = assay: Herbicidal activity against Avena sterilis accession P21S assessed as weed survival at 1 times field recommended herbicide dose
Avena sterilis [49] = assay: Herbicidal activity against Avena sterilis accession P22 assessed as weed survival at 4 times field recommended herbicide dose
Avena sterilis [50] = assay: Herbicidal activity against Avena sterilis accession P03 assessed as weed survival at 8 times field recommended herbicide dose
Avena sterilis [51] = assay: Herbicidal activity against Avena sterilis accession P13S assessed as weed survival at 1/4 times field recommended herbicide dose
Avena sterilis [52] = assay: Herbicidal activity against Avena sterilis accession P02 assessed as weed survival at 4 times field recommended herbicide dose
Avena sterilis [53] = assay: Herbicidal activity against Avena sterilis accession P03 assessed as weed survival at 1 times field recommended herbicide dose
Avena sterilis [54] = assay: Herbicidal activity against Avena sterilis accession P09 assessed as weed survival at 4 times field recommended herbicide dose
Avena sterilis [55] = assay: Herbicidal activity against Avena sterilis accession P06S assessed as weed survival at 1/16 times field recommended herbicide dose
Avena sterilis [56] = assay: Herbicidal activity against Avena sterilis accession P10S assessed as weed survival at 1/8 times field recommended herbicide dose
Avena sterilis [57] = assay: Herbicidal activity against Avena sterilis accession P08 assessed as weed survival at 1 times field recommended herbicide dose
Avena sterilis [58] = assay: Herbicidal activity against Avena sterilis accession P01 assessed as weed survival at 16 times field recommended herbicide dose
Avena sterilis [59] = assay: Herbicidal activity against Avena sterilis accession P04 assessed as induction of weed mortality

COCc1cnc(C2=NC(C)(C(C)C)C(=O)N2)c(C(=O)O)c1 (configuration not stated) [IMAZAMOX]
<50 gAi/ha: GR50 (Avena sterilis [13]) | GR50 (Avena sterilis [14]) | GR50 (Avena sterilis [21]) | GR50 (Avena sterilis [26]) | GR50 (Avena sterilis [29]) | GR50 (Avena sterilis [30]) | GR50 (Avena sterilis [33]) | GR50 (Avena sterilis [35]) | GR50 (Avena sterilis [44]) | GR50 (Avena sterilis [59])
14 gAi/ha: GR50 (Avena sterilis [2]) | GR50 (Avena sterilis [47])
100%: Survival (Avena sterilis [39])
87%: Survival (Avena sterilis [37])
3%: Survival (Avena sterilis [1]) | Survival (Avena sterilis [57])
57%: Survival (Avena sterilis [18])
60%: Survival (Avena sterilis [42]) | Survival (Avena sterilis [56])
40%: Survival (Avena sterilis [51])
0%: Survival (Avena sterilis [3]) | Survival (Avena sterilis [4]) | Survival (Avena sterilis [5]) | Survival (Avena sterilis [6]) | Survival (Avena sterilis [7]) | Survival (Avena sterilis [8]) | Survival (Avena sterilis [9]) | Survival (Avena sterilis [10]) | Survival (Avena sterilis [11]) | Survival (Avena sterilis [12]) | Survival (Avena sterilis [15]) | Survival (Avena sterilis [17]) | Survival (Avena sterilis [19]) | Survival (Avena sterilis [20]) | Survival (Avena sterilis [22]) | Survival (Avena sterilis [23]) | Survival (Avena sterilis [27]) | Survival (Avena sterilis [28]) | Survival (Avena sterilis [31]) | Survival (Avena sterilis [34]) | Survival (Avena sterilis [36]) | Survival (Avena sterilis [38]) | Survival (Avena sterilis [40]) | Survival (Avena sterilis [41]) | Survival (Avena sterilis [43]) | Survival (Avena sterilis [45]) | Survival (Avena sterilis [46]) | Survival (Avena sterilis [48]) | Survival (Avena sterilis [49]) | Survival (Avena sterilis [50]) | Survival (Avena sterilis [52]) | Survival (Avena sterilis [53]) | Survival (Avena sterilis [54]) | Survival (Avena sterilis [58])
80%: Survival (Avena sterilis [24])
50%: Survival (Avena sterilis [25])
93%: Survival (Avena sterilis [55])
7 gAi/ha: GR50 (Avena sterilis [32])
97%: Survival (Avena sterilis [16])

CCc1cc(C)cc(CC)c1-c1c(OC(=O)C(C)(C)C)n2n(c1=O)CCOCC2 [PINOXADEN]
74 gAi/ha: GR50 (Avena sterilis [59])
<40 gAi/ha: GR50 (Avena sterilis [13]) | GR50 (Avena sterilis [14]) | GR50 (Avena sterilis [26]) | GR50 (Avena sterilis [29]) | GR50 (Avena sterilis [30]) | GR50 (Avena sterilis [33]) | GR50 (Avena sterilis [35]) | GR50 (Avena sterilis [44])
4.1 gAi/ha: GR50 (Avena sterilis [32])
100%: Survival (Avena sterilis [39])
6.6 gAi/ha: GR50 (Avena sterilis [47])
20%: Survival (Avena sterilis [1]) | Survival (Avena sterilis [9]) | Survival (Avena sterilis [18]) | Survival (Avena sterilis [25]) | Survival (Avena sterilis [31]) | Survival (Avena sterilis [42]) | Survival (Avena sterilis [53]) | Survival (Avena sterilis [56]) | Survival (Avena sterilis [57])
3%: Survival (Avena sterilis [51])
80%: Survival (Avena sterilis [55])
97%: Survival (Avena sterilis [16]) | Survival (Avena sterilis [24])
42 gAi/ha: GR50 (Avena sterilis [21])
63%: Survival (Avena sterilis [28])
57%: Survival (Avena sterilis [37])
5.8 gAi/ha: GR50 (Avena sterilis [2])
0%: Survival (Avena sterilis [3]) | Survival (Avena sterilis [4]) | Survival (Avena sterilis [5]) | Survival (Avena sterilis [6]) | Survival (Avena sterilis [7]) | Survival (Avena sterilis [8]) | Survival (Avena sterilis [10]) | Survival (Avena sterilis [11]) | Survival (Avena sterilis [12]) | Survival (Avena sterilis [15]) | Survival (Avena sterilis [17]) | Survival (Avena sterilis [19]) | Survival (Avena sterilis [20]) | Survival (Avena sterilis [22]) | Survival (Avena sterilis [23]) | Survival (Avena sterilis [27]) | Survival (Avena sterilis [34]) | Survival (Avena sterilis [36]) | Survival (Avena sterilis [38]) | Survival (Avena sterilis [40]) | Survival (Avena sterilis [41]) | Survival (Avena sterilis [43]) | Survival (Avena sterilis [45]) | Survival (Avena sterilis [46]) | Survival (Avena sterilis [48]) | Survival (Avena sterilis [49]) | Survival (Avena sterilis [50]) | Survival (Avena sterilis [52]) | Survival (Avena sterilis [54]) | Survival (Avena sterilis [58])

CCO/N=C(\CC)C1=C(O)CC(c2c(C)cc(C)cc2C)CC1=O (configuration not stated) [TRALKOXYDIM]
7591 gAi/ha: GR50 (Avena sterilis [59])
100%: Survival (Avena sterilis [39])
23%: Survival (Avena sterilis [25])
412 gAi/ha: GR50 (Avena sterilis [14])
30%: Survival (Avena sterilis [12]) | Survival (Avena sterilis [18]) | Survival (Avena sterilis [56])
97%: Survival (Avena sterilis [28])
29 gAi/ha: GR50 (Avena sterilis [32])
7%: Survival (Avena sterilis [8])
84 gAi/ha: GR50 (Avena sterilis [2])
60%: Survival (Avena sterilis [7]) | Survival (Avena sterilis [55])
17%: Survival (Avena sterilis [19])
781 gAi/ha: GR50 (Avena sterilis [26])
2916 gAi/ha: GR50 (Avena sterilis [21])
1561 gAi/ha: GR50 (Avena sterilis [33])
33%: Survival (Avena sterilis [42])
40%: Survival (Avena sterilis [24]) | Survival (Avena sterilis [27]) | Survival (Avena sterilis [49]) | Survival (Avena sterilis [52])
80%: Survival (Avena sterilis [16])
77%: Survival (Avena sterilis [1]) | Survival (Avena sterilis [9]) | Survival (Avena sterilis [15]) | Survival (Avena sterilis [37]) | Survival (Avena sterilis [53])
0%: Survival (Avena sterilis [3]) | Survival (Avena sterilis [4]) | Survival (Avena sterilis [6]) | Survival (Avena sterilis [10]) | Survival (Avena sterilis [11]) | Survival (Avena sterilis [17]) | Survival (Avena sterilis [20]) | Survival (Avena sterilis [22]) | Survival (Avena sterilis [23]) | Survival (Avena sterilis [36]) | Survival (Avena sterilis [38]) | Survival (Avena sterilis [40]) | Survival (Avena sterilis [41]) | Survival (Avena sterilis [43]) | Survival (Avena sterilis [46]) | Survival (Avena sterilis [58])
11 gAi/ha: GR50 (Avena sterilis [47])
20%: Survival (Avena sterilis [5]) | Survival (Avena sterilis [34]) | Survival (Avena sterilis [45]) | Survival (Avena sterilis [48]) | Survival (Avena sterilis [50]) | Survival (Avena sterilis [51]) | Survival (Avena sterilis [54])
63%: Survival (Avena sterilis [57])
<400 gAi/ha: GR50 (Avena sterilis [13]) | GR50 (Avena sterilis [29]) | GR50 (Avena sterilis [30]) | GR50 (Avena sterilis [44])
70%: Survival (Avena sterilis [31])
1073 gAi/ha: GR50 (Avena sterilis [35])
